Source: PMC2642980 (Bioorganic & medicinal chemistry letters, 2008)

Columns and labels:
[1] = cited from earlier work
Caco-2 monolayers = assay: Transepithelial transport through Caco-2 monolayers; conditions: apical pH 6.0 MES to basolateral pH 7.4 HEPES, 21 days post-seeding
[2] = target: T1, human PEPT1 transporter (HeLa/hPEPT1 cells) (Homo sapiens, UniProt P46059); assay: Direct uptake in HeLa cells overexpressing hPEPT1; conditions: fold uptake over control cells not expressing PEPT1
T1 sequence (P46059 1-708): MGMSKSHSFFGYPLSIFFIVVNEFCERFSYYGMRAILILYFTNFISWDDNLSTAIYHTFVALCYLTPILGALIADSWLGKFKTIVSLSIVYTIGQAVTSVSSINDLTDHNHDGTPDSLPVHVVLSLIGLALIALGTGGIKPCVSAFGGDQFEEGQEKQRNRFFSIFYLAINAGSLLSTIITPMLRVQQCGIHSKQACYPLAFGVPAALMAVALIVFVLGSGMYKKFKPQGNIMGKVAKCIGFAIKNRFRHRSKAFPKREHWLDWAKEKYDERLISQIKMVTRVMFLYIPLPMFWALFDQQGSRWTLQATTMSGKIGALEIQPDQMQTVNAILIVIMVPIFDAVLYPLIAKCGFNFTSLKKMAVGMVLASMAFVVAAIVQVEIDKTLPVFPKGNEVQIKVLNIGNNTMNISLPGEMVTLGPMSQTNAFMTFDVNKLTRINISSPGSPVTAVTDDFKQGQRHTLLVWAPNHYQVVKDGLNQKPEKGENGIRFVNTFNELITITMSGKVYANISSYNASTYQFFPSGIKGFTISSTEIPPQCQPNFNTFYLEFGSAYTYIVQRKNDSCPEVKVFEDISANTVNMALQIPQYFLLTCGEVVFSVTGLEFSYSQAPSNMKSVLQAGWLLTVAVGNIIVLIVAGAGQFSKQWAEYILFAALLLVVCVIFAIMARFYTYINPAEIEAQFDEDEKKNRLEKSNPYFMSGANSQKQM

[3] = rat
[4] = cited from earlier work; remark: listed apart in the source
cowpox virus = type: cell-based; conditions: read-out: EC50 Cowpox
vaccinia virus = type: cell-based; conditions: read-out: EC50 Vaccinia

**Q.** For `O=c1[nH]cnc2c1ncn2[C@@H]1O[C@H](CO)[C@@H](O)[C@@H]1O` [ara-H, ara-hypoxanthine], which “Fold less potent than vidarabine (antiviral activity)” value [1] is on record?
**A.** at least 10 fold

**Q.** With `CC(C)[C@@H](N)C(=O)OC[C@H]1O[C@@H](n2cnc3c(N)ncnc32)[C@@H](O)[C@@H]1O` [Compound 7a] as the compound, how does the Caco-2 permeability (Caco-2 monolayers) read?
**A.** 0.601 cm/s × 10^6

**Q.** What does the source list for `CC[C@H](C)[C@H](N)C(=O)OC[C@H]1O[C@@H](n2cnc3c(N)ncnc32)[C@@H](O)[C@@H]1O` [Compound 7k]?
**A.** hPEPT1 control (uptake ratio HeLa/hPEPT1 over HeLa control) [2]: 26.9; Caco-2 permeability (Caco-2 monolayers): 1.026 cm/s × 10^6

**Q.** With `Nc1ncnc2c1ncn2[C@@H]1O[C@H](COC(=O)[C@@H](N)Cc2ccccc2)[C@@H](O)[C@@H]1O` [Compound 7l] as the compound, how does the Caco-2 permeability (Caco-2 monolayers) read?
**A.** 0.668 cm/s × 10^6

**Q.** Which “hPEPT1 control (uptake ratio HeLa/hPEPT1 over HeLa control)” value [2] does the source give for `CC(C)[C@H](N)C(=O)OC[C@H]1O[C@@H](n2cnc3c(N)ncnc32)[C@@H](O)[C@@H]1O` [Compound 7i] here?
**A.** 20.7

**Q.** Which “hPEPT1 control (uptake ratio HeLa/hPEPT1 over HeLa control)” value [2] does the source give for `CC(C)[C@H](N)C(=O)OCCOCn1cnc2c(=O)[nH]c(N)nc21` [Valacyclovir] here?
**A.** 19.0

**Q.** What does the source list for “1-Beta-D-arabinofuranosyladenine [Vidarabine]”?
**A.** T1/2 Plasma [3]: 25.8 min; Solubility in water [4]: ~ 0.47 mg/ml; EC50 (cowpox virus): 12.6 µM; EC50 (vaccinia virus): 6.2 µM; Caco-2 permeability (Caco-2 monolayers): 0.083 cm/s × 10^6
